These results are taken from patent publication US20070259927A1, “Remedy for Diabetes” (Takeda Pharmaceutical Company Limited, priority 2004, published 2007).

Common to all, as to format: in vivo
The subject of assay [1] is db/db mouse. Nature of the assay: Experimental Example 3: db/db mouse, powder diet for 4 weeks, pioglitazone and sitagliptin alone or combined. As to conditions: db/db mice, in powder diet 4 weeks, mean (n=8)±standard deviation; for plasma insulin level / plasma glucose level / plasma insulin/plasma glucose value: day 28; for plasma insulin level / pancreatic insulin content: pioglitazone 0.01(w/w)%, sitagliptin 0.03(w/w)%; for plasma glucose level: pioglitazone hydrochloride 0.01(w/w)% as pioglitazone, sitagliptin hydrochloride 0.03(w/w)% as sitagliptin; for plasma insulin/plasma glucose value: plasma insulin level divided by plasma glucose level; for pancreatic insulin content: pancreas removed day 29. An excerpt: First of all, db/db mice (32 mice) were divided into 4 groups of […] mice in each group), and a powder diet (trade name: CE-2, Clea Japan, Inc., hereinafter the same) was given to group K (control group), a powder diet containing pioglitazone hydrochloride (0.01(w/w) % as pioglitazone) was given to group L, a powder diet containing sitagliptin hydrochloride (0.03(w/w) % as sitagliptin) was given to group M, and a powder diet containing pioglitazone hydrochloride (0.01(w/w) % as pioglitazone) and sitagliptin hydrochloride (0.03(w/w) % as sitagliptin) was given to group N, for 4 consecutive weeks. In addition, a powder diet was given to db/+m mice for 4 consecutive weeks, and the mice were used as group 0 (normal group). In the above-mentioned groups K to N, blood samples were collected from mice on day 28 from the start of the powder diet administration, and plasma glucose level and plasma insulin level were measured. […] The results are shown in [Table 9] to [Table 12]. The values in the tables show mean (n=8)±standard deviation.

Assay [2] deals with db/db mouse. The assay can be described thus: Experimental Example 1: db/db mouse, powder diet for 3 weeks, pioglitazone and compound A alone or combined. The note with it: db/db mice, in powder diet 3 weeks, mean (n=8)±standard deviation; for plasma insulin level / plasma glucose level / plasma insulin/plasma glucose value: day 21; for plasma insulin level / pancreatic insulin content: pioglitazone 0.01(w/w)%, compound A 0.03(w/w)% (½ fumarate); for plasma glucose level: pioglitazone hydrochloride 0.01(w/w)% as pioglitazone, ½ fumarate of compound A 0.03(w/w)% as compound A; for plasma insulin/plasma glucose value: plasma insulin level divided by plasma glucose level; for pancreatic insulin content: pancreas removed day 23. An excerpt:
First of all, db/db mice (32 mice) were divided into 4 groups of A to D (8 mice in each group), and a powder diet (trade name: CE-2, Clea Japan, Inc., hereinafter the same) was given to group A (control group), a powder diet containing pioglitazone hydrochloride (0.01(w/w) % as pioglitazone) was given to group B, a powder diet containing ½ fumarate of compound A (0.03(w/w) % as compound A) was given to group C, and a powder diet containing pioglitazone hydrochloride (0.01(w/w) % as pioglitazone) and ½ fumarate of compound A (0.03(w/w) % as compound A) was given to group D, for 3 consecutive weeks.
In addition, a powder diet was given to db/+m mice for 3 consecutive weeks, and the mice were used as group E (normal group).
In the above-mentioned groups A to E, blood samples were collected from mice on day 21 from the start of the powder diet administration, and plasma glucose level and plasma insulin level were measured. On day 23 from the start of the powder diet administration, the pancreas was removed from the mice, and the pancreatic insulin content was measured.
The plasma glucose level was measured by an enzyme method using L type Wako Glu2 (trade name, Wako Pure Chemical Industries, Ltd.).
In addition, the plasma insulin level was measured by a radioimmunoassay (trade name, ShionoRIA insulin), and the plasma insulin level was divided by the plasma glucose level to determine the plasma insulin/plasma glucose value.
The pancreatic insulin content was measured as follows.
First, the mouse pancreas was disrupted in its 10 times weight of 75% ethanol (containing 0.15 M hydrochloric acid). The obtained disrupted solution was left standing overnight under the shading conditions at 4·^□C, and centrifuged at 15000 rpm for 5 min. The obtained supernatant was appropriately diluted with PBS(−) (phosphate-buffered saline) containing 0.1% BSA (bovine serum albumin). The insulin content of the diluted solution was measured in the same manner as in the above-mentioned plasma insulin level, and the insulin content per pancreatic tissue weight was calculated.
The results are shown in [Table 1] to [Table 4]. The values in the tables show mean (n=8)±standard deviation.

Assay [3] deals with db/db mouse. The assay can be described thus: Experimental Example 2: db/db mouse, powder diet for 5 weeks, pioglitazone and vildagliptin alone or combined. The note with it: db/db mice, in powder diet 5 weeks, mean (n=8)±standard deviation; for pancreatic insulin content: pancreas removed day 37. From the text:
First of all, db/db mice (32 mice) were divided into 4 groups of F to I (8 mice in each group), and
a powder diet (trade name: CE-2, Clea Japan, Inc., hereinafter the same) was given to group F (control group), a powder diet containing pioglitazone hydrochloride (0.01 (w/w) % as pioglitazone) was given to group G,
a powder diet containing pioglitazone hydrochloride
In addition, a powder diet was given to db/+m mice for 5 consecutive weeks, and the mice were used as group J (normal group).
In the above-mentioned groups F to I, blood samples were collected from mice on day 35 from the start of the powder diet administration, and plasma glucose level and plasma insulin level were measured. On day 37 from the start of the powder diet administration, the pancreas was removed from the mice, and the pancreatic insulin content was measured.
The plasma glucose level, plasma insulin level, plasma insulin/plasma glucose value, and the pancreatic insulin content were measured in the same manner as in Experimental Example 1.
The results are shown in [Table 5] to [Table 8]. The values in the tables show mean (n=8)±standard deviation.

The mark [4] stands for this setting: pioglitazone 0.01(w/w)%, vildagliptin 0.03(w/w)%.

For the compound `N[C@@H](CC(=O)N1CCn2c(nnc2C(F)(F)F)C1)Cc1cc(F)c(F)cc1F` [sitagliptin], in the assay with db/db mouse [1], the plasma insulin level worked out at 103.1 ± 47.2 μU/mL, the plasma glucose level came to 492.3 ± 38.3 mg/dL, the “plasma insulin/plasma glucose value” worked out at 21.6 ± 11.3 μU/mg and the pancreatic insulin content came to 331.1 ± 79.6 μU/mg tissue.
For the compound `CCc1ccc(CCOc2ccc(CC3SC(=O)NC3=O)cc2)nc1` (stereo not drawn) [pioglitazone], the plasma insulin level in the assay on db/db mouse [2] was found to be 289.2 ± 261.8 μU/mL; with db/db mouse [1], 739.5 ± 472.8 μU/mL; with db/db mouse [3] (day 35, pioglitazone 0.01(w/w)%, vildagliptin 0.03(w/w)%), 200.2 ± 78.0 μU/mL. Also, the plasma glucose level with db/db mouse [2] came out at 411.0 ± 54.4 mg/dL; in the assay on db/db mouse [1], 341.0 ± 100.6 mg/dL; with db/db mouse [3] (day 35, pioglitazone hydrochloride 0.01(w/w)% as pioglitazone, vildagliptin 0.03(w/w)%), 348.5 ± 97.4 mg/dL. In addition, the “plasma insulin/plasma glucose value” in the assay on db/db mouse [2] is 72.9 ± 64.5 μU/mg; in the assay on db/db mouse [1], 261.7 ± 217.9 μU/mg; in the assay on db/db mouse [3] (day 35, plasma insulin level divided by plasma glucose level), 63.9 ± 35.9 μU/mg. The pancreatic insulin content in the assay with db/db mouse [2] amounted to 2314.2 ± 1285.4 μU/mg tissue; in the assay with db/db mouse [1], 1117.2 ± 479.7 μU/mg tissue; in the assay on db/db mouse [3] (setting [4]) it was 834.7 ± 275.3 μU/mg tissue.
In the case of `Cc1ccc(-c2c(CN)c(CC(C)C)nc(C)c2C(=O)O)cc1` [compound A, 5-(aminomethyl)-6-isobutyl-2-methyl-4-(4-methylphenyl)nicotinic acid], in the assay with db/db mouse [2], the plasma insulin level turned out to be 135.5 ± 115.4 μU/mL, the plasma glucose level was 502.0 ± 54.3 mg/dL, the “plasma insulin/plasma glucose value” was 29.0 ± 28.4 μU/mg and the pancreatic insulin content was 918.4 ± 328.6 μU/mg tissue.
On to `N#C[C@@H]1CCCN1C(=O)CNC12CC3CC(CC(O)(C3)C1)C2` [vildagliptin, (2S)-1-{[(3-hydroxy-1-adamantyl)amino]acetyl}-2-cyano-pyrrolidine], for which the pancreatic insulin content in the assay on db/db mouse [3] (setting [4]) is on record as 559.2 ± 169.2 μU/mg tissue.
